Results as given in ChEMBL document CHEMBL4823243, “Synergistic induction of apoptosis in resistant head and neck carcinoma and leukemia by alkoxyamide-based histone deacetylase inhibitors” (Eur J Med Chem, 2021).
The source made the active and inactive calls. No cut-off for these calls is given here.

Tests used:
CAL-27 = experiment: Induction of apoptosis in cisplatin resistant human CAL-27 cells assessed as caspase 7 activation at 2 uM in presence cisplatin of pretreated for 24 hrs followed by cisplatin treatment and further incubated for 18 hrs by Caspase3/7 detection reagent based assay; format: functional, cell-based; conditions: time 42.0 hrs
[1] = target: T1, Histone deacetylase (Homo sapiens) (UniProt Q13547+O15379+Q9UBN7+Q92769+Q9UQL6+Q8WUI4+Q9BY41+Q96DB2+P56524+Q9UKV0+Q969S8); experiment: Inhibition of HDAC in human CAL-27 cells assessed as potentiation of cisplatin-induced cytotoxicity by measuring fold reduction in cisplatin IC50 at 2 to 3 uM pretreated for 48 hrs followed by cisplatin addition and measured after 72 hrs by MTT assay relative to cisplatin alone; format: cell-based; conditions: dose 2-3 µM, time 120.0 hrs
[2] = target: T1, Histone deacetylase (Homo sapiens); experiment: Inhibition of HDAC in human CAL-27 cells assessed as combination index at 1.5 uM measured in presence of 5 uM cDDP by MTT-based Chou-Talalay method; format: cell-based
[3] = target: T1, Histone deacetylase (Homo sapiens); experiment: Inhibition of HDAC in human CAL-27 cells assessed as combination index at 2 uM measured in presence of 5 uM cDDP by MTT-based Chou-Talalay method; format: cell-based
[4] = target: T1, Histone deacetylase (Homo sapiens); experiment: Inhibition of HDAC in human CAL-27 cells assessed as combination index at 1 uM measured in presence of 10 uM cDDP by MTT-based Chou-Talalay method; format: cell-based
[5] = target: T1, Histone deacetylase (Homo sapiens); experiment: Inhibition of HDAC in human CAL-27 cells assessed as combination index at 1.25 uM measured in presence of 10 uM cDDP by MTT-based Chou-Talalay method; format: cell-based
[6] = target: T1, Histone deacetylase (Homo sapiens); experiment: Inhibition of HDAC in human CAL-27 cells assessed as combination index at 1.5 uM measured in presence of 10 uM cDDP by MTT-based Chou-Talalay method; format: cell-based
[7] = target: T1, Histone deacetylase (Homo sapiens); experiment: Inhibition of HDAC in human Cal27CisR cells assessed as combination index at 2 uM measured in presence of 10 uM cDDP by MTT-based Chou-Talalay method; format: cell-based
[8] = target: T1, Histone deacetylase (Homo sapiens); experiment: Inhibition of HDAC in human Cal27CisR cells assessed as combination index at 1 uM measured in presence of 20 uM cDDP by MTT-based Chou-Talalay method; format: cell-based
[9] = target: T1, Histone deacetylase (Homo sapiens); experiment: Inhibition of HDAC in human Cal27CisR cells assessed as combination index at 1.5 uM measured in presence of 20 uM cDDP by MTT-based Chou-Talalay method; format: cell-based
[10] = target: T1, Histone deacetylase (Homo sapiens); experiment: Inhibition of HDAC in human Cal27CisR cells assessed as combination index at 1 uM measured in presence of 50 uM cDDP by MTT-based Chou-Talalay method; format: cell-based
[11] = target: T1, Histone deacetylase (Homo sapiens); experiment: Inhibition of HDAC in human Cal27CisR cells assessed as combination index at 1.5 uM measured in presence of 50 uM cDDP by MTT-based Chou-Talalay method; format: cell-based

- CI [2]: 0.37
- CI [3]: 0.2
- CI [4]: 0.34
- CI [5]: 0.3
- CI [6]: 0.21
- CI [7]: 0.58
- CI [8]: 1.42
- CI [9]: 0.55
- CI [10]: 0.47
- CI [11]: 0.38
Structure (SMILES): O=C(CCCCCONC(=O)c1nccc2ccccc12)NO
- Activity (CAL-27): Active
- Ratio IC50 [1]: 3.25
